Values after ≈ are worked out from the molar mass of the structure shown. Read-outs that look alike come from different tables or passages of the source.
Columns and labels:
adult S. mansoni = assay: Phenotypic screen of adult S. mansoni worms, severity scores and descriptors; assay type: cell-based, Schistosoma mansoni; settings: for Descriptors (10 µM) 1 h / Severity Scores (10 μM) 1 h / Descriptors (10 µM) 5 h / Severity Scores (10 μM) 5 h / Descriptors (10 µM) 24 h / Severity Scores (10 μM) 24 h / Descriptors (10 µM) 48 h / Severity Scores (10 μM) 48 h: adult S. mansoni; for Descriptors (10 µM) 1 h / Descriptors (10 µM) 5 h / Descriptors (10 µM) 24 h / Descriptors (10 µM) 48 h: phenotypic descriptors; for Severity Scores (10 μM) 1 h / Severity Scores (10 μM) 5 h / Severity Scores (10 μM) 24 h / Severity Scores (10 μM) 48 h: scale 0 (no activity) to 4 (maximal activity); for bioactivity against adult S. mansoni: adult schistosomes; for Severity Scores (10 μM) 1 h / Severity Scores (10 μM) 5 h / Severity Scores (10 μM) 24 h / Severity Scores (10 μM) 48 h / bioactivity against adult S. mansoni: 10 μM
In short: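 Adult S. mansoni (NMRI isolate, ≥42 days old) were co-incubated with compounds and changes in motility, density, shape and adherence recorded visually over time and concentration. Descriptors converted to severity scores from 0 (no activity) to 4 (maximal).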

HepG2 cells = assay: Drug toxicity to HepG2 cells (MTT); assay type: cell-based; settings: for HepG2 TC50: HepG2 cells, 48 hours incubation, MTT; for increase in toxicity against HepG2 cells compared with 3: relative to 3
[1] = Aqueous pH 7.4 solubility; assay type: physicochemical; settings: for solubility: phosphate buffer pH 7.4, 25 °C, 20-24 h, read-out: aq sol (aqueous solubility)
[2] = Human plasma protein binding (equilibrium dialysis); assay type: in vitro ADME; settings: for human PPB (plasma protein binding): 10 µM, 37 °C; for fraction unbound at 10 µM: pH 7.4, 37 °C, read-out: human PPB (plasma protein binding) (converted)
[3] = Human liver microsomal Clint; assay type: in vitro ADME; settings: human liver microsomes, intrinsic clearance; for microsomal CLint: read-out: HLM Clint
Rat hepatocyte Clint = assay type: in vitro ADME; settings: rat hepatocytes, intrinsic clearance; for hepatocyte CLint: read-out: RH CLint
[4] = Log D7.4 shake-flask octanol-water; assay type: physicochemical; settings: pH 7.4
[5] = aqueous buffer, thermodynamic from solid

Row | Structure (SMILES) | Descriptors (10 µM) 1 h (adult S. mansoni) | Severity Scores (10 μM) 1 h (adult S. mansoni) | Descriptors (10 µM) 5 h (adult S. mansoni) | Severity Scores (10 μM) 5 h (adult S. mansoni) | Descriptors (10 µM) 24 h (adult S. mansoni) | Severity Scores (10 μM) 24 h (adult S. mansoni) | Descriptors (10 µM) 48 h (adult S. mansoni) | Severity Scores (10 μM) 48 h (adult S. mansoni) | HepG2 TC50 (HepG2 cells) | solubility [1] | human PPB (plasma protein binding) [2] | HLM Clint [3] | RH CLint (Rat hepatocyte Clint) | LogD 7.4 [4] | bioactivity against adult S. mansoni (adult S. mansoni) | logD [4] | other results
1 | O=S(=O)(c1ccc(-c2ccc3nccc(NCCC4CCOCC4)c3c2)cc1)N1CCOCC1 [S3h] | none | 0 | none | 0 | none | 0 | none | 0 | 21 µM | 200 µM (≈ 96.3 µg/mL) | 82% | 110 μL/min/mg protein | 100 µL/min/10^6 cells | 2.8 |  |  | 
2 | O=S(=O)(c1ccc(-c2ccc3nccc(NC4CCOCC4)c3c2)cc1)N1CCOCC1 [S3f] |  | 1 |  | 1 |  | 1 |  | 1 | 16 µM | 7 µM (≈ 3.17 µg/mL) | 70% | 59 μL/min/mg protein | 20 µL/min/10^6 cells | 2.3 |  |  | 
3 | O=S(=O)(c1ccc(-c2ccc3nccc(Nc4ncccn4)c3c2)cc1)N1CCOCC1 [S3b] | S, on sides | 2 | S, on sides | 2 |  | 3 |  | 3 | > 34 µM |  |  |  |  |  | moderate activity after 1 h | 3.7 | solubility [1, 5]: 34 µM (≈ 15.2 µg/mL); fraction unbound at 10 µM [2]: 0.01; microsomal CLint [3]: 270 µL/min/mg; hepatocyte CLint (Rat hepatocyte Clint): 85 µL/min/1e6 cells
4 | Cc1cnc(Nc2ccnc3cc(-c4cnc(N5CCN(C)CC5)nc4)ccc23)cn1 [5a] |  | 1 |  | 4 |  | 4 |  | 4 |  |  |  |  |  |  | severe phenotypic response after just 5 h | 3.6 | increase in toxicity against HepG2 cells compared with 3 (HepG2 cells): greater than 1.9 fold; solubility [1, 5]: 13 µM (≈ 5.36 µg/mL); fraction unbound at 10 µM [2]: 0.07; microsomal CLint [3]: 240 µL/min/mg; hepatocyte CLint (Rat hepatocyte Clint): 150 µL/min/1e6 cells
5 | O=S(=O)(c1ccc(-c2ccc3nccc(NCCN4CCCC4)c3c2)cc1)N1CCOCC1 [S3e] | none | 0 | none | 0 |  | 1 |  | 3 | 9.2 µM | 870 µM (≈ 406 µg/mL) | 73% | 28 μL/min/mg protein | 10 µL/min/10^6 cells | 2.2 |  |  | 
6 | CN1CCC(Nc2ccnc3ccc(-c4ccc(S(=O)(=O)N5CCOCC5)cc4)cc23)CC1 [S3c] | none | 0 | none | 0 | none | 0 | none | 0 | 26 µM | 790 µM (≈ 369 µg/mL) | 58% | 23 μL/min/mg protein | 3.7 µL/min/10^6 cells |  |  |  | 
7 | Cc1cc2c(Nc3cnccn3)ccnc2cc1-c1cnc(N2CCN(C)CC2)nc1 [8a] | Unc, on sides | 2 |  |  |  | 4 |  | 4 |  |  |  |  |  |  | severe phenotypic response by 5 h | 3.3 | increase in toxicity against HepG2 cells compared with 3 (HepG2 cells): greater than 5 fold; decrease in aqueous solubility compared with 3 ([1]; relative to 3): > 2200 fold
8 | O=S(=O)(c1ccc(-c2ccc3nccc(NCC4CCOCC4)c3c2)cc1)N1CCOCC1 [S3g] | none | 0 | none | 0 | none | 0 | none | 0 | 32 µM | 38 µM (≈ 17.8 µg/mL) | 74% | 70 μL/min/mg protein | 72 µL/min/10^6 cells | 2.7 |  |  | 

From article PMC7073886, “Structure–Bioactivity Relationships of Lapatinib Derived Analogs against Schistosoma mansoni” (ACS Medicinal Chemistry Letters, 2020)
